Test [1] deals with γ2-MSH-induced calcium release in HEK-MrgC11. The experiment in a line: γ2-MSH-induced [Ca2+]i response in HEK-MrgC11 with pathway inhibitors. Format: cell-based, human. As to conditions: HEK-MrgC11, 1 μM γ2-MSH; 10 μM U73122 or U73343 10 min pretreatment; 1 μM TG in 2 mM EGTA. The procedure:
(§1) Cells loaded with Fura-2/AM were stimulated with each agonist and fluorescence was recorded. Graphs represent an average plot of [Ca^2+]i measurements versus time (in s) in a minimum of 8 cells from representative experiments. Individual data points represent images taken at 0.8-s intervals. […] After a 10 minute pretreatment with U73122 and U73343, each agonist was added. FIGS. 2B and E show the extracellular [Ca^2+] dependency of Ca^2+ mobilization. Cells were preincubated for 2 minutes with 2 mM EGTA (open circles) or normal medium containing 1.2 mM calcium (closed circles) and then 3 μM FLRFa or 1 μM γ2-MSH was added. […] In the presence of 2 mM EGRA, TG (1 μM final concentration) was added to deplete internal Ca^2+ stores.
(§2) The calcium source responsible for the initial peak in [Ca^2+]i was determined by depleting internal calcium stores with the application of 1 μM TG (FIGS. 2C and F).
(§3) Heterotrimeric G proteins of the Gαi and Gαq class are involved in the propagation of signals from GPCRs leading to [Ca^2+]i elevation (Guderman et al. Ann. Rev. Pharmacol. Toxicol. 36:429-459 (1996)). To determine whether Gαi/o proteins are involved in the [Ca^2+]i response, we pretreated HEK-MrgA1 or HEK-MrgC11 cells with PTX (100 ng/ml) for 16 h. […] The dose dependency in [Ca^2+]i responses for both receptors were not affected by PTX (FIGS. 4A and D).

Test [2] deals with FLRFa-induced calcium release in HEK-MrgA1. Put plainly: FLRFa-induced [Ca2+]i response in HEK-MrgA1 with pathway inhibitors. Format: cell-based, human. The note with it: HEK-MrgA1, 3 μM FLRFa; 10 μM U73122 or U73343 10 min pretreatment; 1 μM TG in 2 mM EGTA. The procedure: as §1, §2, §3
In test [3] the target is T1, MrgC11 (Mus musculus, UniProt Q8CIP3).
T1 construct: A full-length MrgC11 cDNA was cloned from the newborn DRG cDNA library; expressed in transfected cells
T1 sequence (Q8CIP3 1-322): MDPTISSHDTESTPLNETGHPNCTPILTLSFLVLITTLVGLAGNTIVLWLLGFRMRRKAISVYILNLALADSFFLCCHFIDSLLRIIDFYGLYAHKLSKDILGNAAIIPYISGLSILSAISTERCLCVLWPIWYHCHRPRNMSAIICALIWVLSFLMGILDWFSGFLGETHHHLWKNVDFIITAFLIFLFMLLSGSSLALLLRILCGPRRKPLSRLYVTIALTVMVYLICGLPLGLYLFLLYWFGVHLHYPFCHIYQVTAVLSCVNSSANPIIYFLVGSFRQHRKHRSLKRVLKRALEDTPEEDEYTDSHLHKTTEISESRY
The experiment in a line: calcium-mobilization assay (FLEXstation, Fura-2/AM) in HEK-MrgC11 cells. It is filed as cell-based. The procedure:
(§4) To address the questions of the ligand selectivity of the MrgC11 receptor, human embryonic kidney (HEK) 293 cells stably expressing either MrgA1 or MrgC11 were established. Neuropeptides were screened to identify ligands and agonists.
(§5) HEK293 cells were transfected with cDNA encoding the MrgAl-GFP, mNPFF2-GFP or MrgC11-GFP in pcDNA3.1/Zio(+) plasmid (Invitrogen) using the FuGENE6 transfection reagent (Roche Molecular Biomolecules). The transfected cells were selected with 400 μg/ml zeocin in DMEM supplemented with 10% FBS. Each cloned cell was further selected for membrane localization of receptor-GFP fusion protiens.
(§6) The selected cells were maintained in the same medium supplemented with 200 μg/ml zeocin. The stable cell lines were designated HEK-MrgA1, HEK-NPFF2 and HEK-MrgC11.
(§7) To identify putative ligands for MrgC11 and MrgA1 receptors, HEK-MrgC11 or HEKMrgA1 stable cell lines were screened in a calcium-mobilization assay using a fluorescence-imaging plate reader (FLEXstation). Briefly, HEK-MrgA1 or HEK-MrgC11 were plated in 96-black-well plates (Corning) and grown to confluence. After incubation with Fura-2/AM for >20 min, cells were washed and equilibrated for 20 min with HBSS (Hanks' balanced salt solution) assay buffer. The fluorescence emission caused by intracellular calcium mobilization elicited by agonists was determined by using a fluorometric imaging plate reader, Flexstation (Molecular Devices). All peptides were from Phoenix Pharmaceuticals (St. Joseph, Mo.), Bachem, American Peptide (Sunnyvale, Calif.), or Sigma.

Test [4] concerns the target T2, MrgA1 (Mus musculus, UniProt Q91WW5).
T2 construct: expressed in transfected cells
T2 sequence (Q91WW5 1-304): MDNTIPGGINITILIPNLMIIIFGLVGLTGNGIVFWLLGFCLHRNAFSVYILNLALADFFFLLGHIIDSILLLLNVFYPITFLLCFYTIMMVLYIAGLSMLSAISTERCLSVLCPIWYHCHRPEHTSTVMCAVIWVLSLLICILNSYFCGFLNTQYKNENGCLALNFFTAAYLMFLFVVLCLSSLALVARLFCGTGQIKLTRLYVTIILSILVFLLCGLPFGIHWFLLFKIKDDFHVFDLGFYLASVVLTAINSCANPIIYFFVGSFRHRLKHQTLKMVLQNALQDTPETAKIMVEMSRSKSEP
The experiment in a line: calcium-mobilization assay (FLEXstation, Fura-2/AM) in HEK-MrgA1 cells. It is filed as cell-based. The procedure:
as §4, §5, §6, §7

[5] abbreviates: Table 1, HEK-MrgC11 cells, FLEXstation assay, means ± SEM, triplicate, Inactive = no activation detected at concentrations up to 10 mM, read-out: EC50 MrgC11.
Where [6] appears, read: Table 1, HEK-MrgA1 cells, FLEXstation assay, means ± SEM, triplicate, Inactive = no activation detected at concentrations up to 10 mM.

“Also recorded” adds a separate entry of the source. Where two headings read alike, the source gives them in different places. Where no end group is shown, it is not given here. Some results are limits rather than exact numbers.

On to `C/C=C(/C)C(=O)O[C@H]1C(C)=C2[C@H]([C@@H]1OC(=O)CCCCCCC)[C@@](C)(OC(C)=O)C[C@H](OC(=O)CCC)[C@@]1(O)[C@H]2OC(=O)[C@@]1(C)O` [TG, thapsigargin], for which the “effect on γ2-MSH-induced calcium response” value in test [1] was “prevents; also recorded: blocked the response”. In addition, the “effect on FLRFa-induced calcium response” value in test [2] is listed as “prevents; also recorded: blocked the response”.
Turning to `COc1ccc2c(c1)CC[C@@H]1[C@@H]2CC[C@]2(C)[C@@H](NCCCCCCN3C(=O)C=CC3=O)CC[C@@H]12` [U73122], in test [1], the “effect on γ2-MSH-induced calcium response” value is on record as “blocked; also recorded: completely inhibited”. The “effect on FLRFa-induced calcium response” value in test [2] is recorded as “blocked; also recorded: completely inhibited”.
`COc1ccc2c(c1)CC[C@@H]1[C@@H]2CC[C@]2(C)[C@@H](NCCCCCCN3C(=O)CCC3=O)CC[C@@H]12` [U73343]: the “effect on γ2-MSH-induced calcium response” value in test [1] is “did not significantly affect”. Moreover, the “effect on FLRFa-induced calcium response” value in test [2] is listed as “did not significantly affect”.
For `CSCC[C@H](NC(=O)[C@@H](NC(=O)[C@@H](N)Cc1ccc(O)cc1)C(C)C)C(=O)NCC(=O)N[C@@H](Cc1c[nH]cn1)C(=O)N[C@@H](Cc1ccccc1)C(=O)N[C@@H](CCCNC(=N)N)C(=O)N[C@@H](Cc1c[nH]c2ccccc12)C(=O)N[C@@H](CC(=O)O)C(=O)N[C@@H](CCCNC(=N)N)C(=O)N[C@@H](Cc1ccccc1)C(N)=O` [γ1-MSH], the concentration for a half-maximal effect (EC50) in test [3] (setting [5]) came to 17 ± 3 nM. Besides, in test [4] (setting [6]), the “EC50 MrgA1” value is reported as “Inactive”.
For AGEGLNSQFWSLAAPQRF-NH2 [NPAF], the concentration for a half-maximal effect (EC50) in test [3] was 282 ± 30 nM. Besides, in test [4] (setting [6]), the “EC50 MrgA1” value is “Inactive”.
For IRPKLKWDNQKRYG [Dynnorphin-14] the same measures were 22 ± 1 nM and “Inactive”.
For KHEYLRF-NH2 [AF-2] the same measures were 130 ± 24 nM and “Inactive”.
As to SGQSWRPQGRF-NH2 [ACEP-1], the EC50 in test [3] (setting [5]) was found to be 46 ± 12 nM. For the same compound, the “EC50 MrgA1” value in test [4] (setting [6]) is “Inactive”.
On the same counts, the results for TPDINPAWYTGRGIRPVGRF-NH2 [PrRP-20] are 144 ± 18 nM and “Inactive”.
For the compound VGRPEWWMDYQKRY-NH2 [BAM-15-amide], the EC50 in test [3] (setting [5]) came out at 479 ± 14 nM; in test [4] (Table 1, HEK-MrgA1 cells, FLEXstation assay, means ± SEM, triplicate, Inactive = no activation detected at concentrations up to 10 mM, read-out: EC50 MrgA1), 8770 nM.
YGGFMRF-NH2 [Met-ENK-RFamide]: the EC50 was 133 ± 20 nM in test [3] and 5250 nM in test [4].
Turning to YGGFMRF-OH [Met-Enk-RF], the EC50 in test [3] amounted to 545 ± 19 nM. For the same compound, in test [4] (HEK-MrgA1 cells, calcium response), the “activation of MrgA1 (in words)” value is “complete loss of activity”. Also, the “EC50 MrgA1” value in test [4] (setting [6]) is “Inactive”.
Turning to YGGFMRRVGRPEWWMDYQKRYGGFL [BAM3200], the EC50 in test [3] was 300 ± 124 nM; in test [4], greater than 10000 nM.

Source of the values: patent US20040121410A1, “Pain signaling molecules” (priority 2002, published 2004).
